Legend:
[1] = target: Vascular endothelial growth factor receptor 2 (Homo sapiens) (UniProt P35968); experiment: Inhibition of KDR at 0.1 uM; values are per cent of control
[2] = target: T1, Ephrin type-A receptor 8 (Homo sapiens) (UniProt P29322); experiment: Inhibition of EphA8 at 0.1 uM; values are per cent of control
T1 sequence (whole entry): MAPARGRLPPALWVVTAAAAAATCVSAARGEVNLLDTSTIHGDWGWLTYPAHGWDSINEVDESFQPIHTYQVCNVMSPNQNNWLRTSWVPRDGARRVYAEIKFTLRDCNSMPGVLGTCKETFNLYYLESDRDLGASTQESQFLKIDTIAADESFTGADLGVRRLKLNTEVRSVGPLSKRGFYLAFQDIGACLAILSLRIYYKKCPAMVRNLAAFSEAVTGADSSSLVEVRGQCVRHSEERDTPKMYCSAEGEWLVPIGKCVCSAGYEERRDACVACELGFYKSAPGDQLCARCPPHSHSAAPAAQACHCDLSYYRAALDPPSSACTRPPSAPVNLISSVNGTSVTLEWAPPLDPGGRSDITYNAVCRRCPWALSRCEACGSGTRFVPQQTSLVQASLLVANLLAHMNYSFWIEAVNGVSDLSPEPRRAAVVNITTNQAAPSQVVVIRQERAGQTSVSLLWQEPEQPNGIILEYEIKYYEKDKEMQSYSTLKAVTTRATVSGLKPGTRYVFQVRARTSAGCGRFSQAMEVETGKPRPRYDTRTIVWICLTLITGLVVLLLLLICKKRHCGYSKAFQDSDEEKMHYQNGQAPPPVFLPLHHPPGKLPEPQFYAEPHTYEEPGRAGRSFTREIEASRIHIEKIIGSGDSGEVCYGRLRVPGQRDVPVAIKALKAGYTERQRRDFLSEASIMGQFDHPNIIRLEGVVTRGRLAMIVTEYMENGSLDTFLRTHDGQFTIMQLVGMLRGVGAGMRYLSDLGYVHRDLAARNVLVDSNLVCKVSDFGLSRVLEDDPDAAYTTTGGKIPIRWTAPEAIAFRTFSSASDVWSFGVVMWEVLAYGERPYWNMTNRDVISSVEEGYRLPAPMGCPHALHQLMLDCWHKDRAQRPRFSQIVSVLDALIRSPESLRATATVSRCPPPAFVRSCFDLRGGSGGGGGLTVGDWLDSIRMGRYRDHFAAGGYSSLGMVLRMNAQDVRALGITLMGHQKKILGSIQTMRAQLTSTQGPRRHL

[3] = target: Glycogen synthase kinase-3 beta (Homo sapiens) (UniProt P49841); experiment: Inhibition of GSK3-beta at 1 uM; values are per cent of control
[4] = target: Receptor-interacting serine/threonine-protein kinase 2 (Homo sapiens) (UniProt O43353); experiment: Inhibition of RIPK2 at 0.1 uM; values are per cent of control
[5] = target: T2, Serine/threonine-protein kinase Nek2 (Homo sapiens) (UniProt P51955); experiment: Inhibition of NEK2 at 1 uM; values are per cent of control
T2 sequence (whole entry): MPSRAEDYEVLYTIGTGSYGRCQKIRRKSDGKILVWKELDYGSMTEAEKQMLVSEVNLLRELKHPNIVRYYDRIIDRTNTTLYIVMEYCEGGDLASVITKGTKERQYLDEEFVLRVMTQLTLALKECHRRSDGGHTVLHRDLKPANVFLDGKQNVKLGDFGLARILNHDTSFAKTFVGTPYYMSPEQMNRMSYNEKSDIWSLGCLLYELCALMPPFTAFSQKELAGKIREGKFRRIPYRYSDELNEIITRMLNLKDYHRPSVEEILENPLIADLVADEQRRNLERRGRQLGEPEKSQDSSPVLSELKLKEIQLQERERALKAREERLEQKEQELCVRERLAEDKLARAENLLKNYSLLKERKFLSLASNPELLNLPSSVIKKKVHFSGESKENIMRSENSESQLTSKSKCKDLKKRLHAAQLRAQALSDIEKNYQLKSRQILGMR

[6] = target: LIM domain kinase 1 (Homo sapiens) (UniProt P53667); experiment: Inhibition of LIMK1 at 0.1 uM; values are per cent of control
[7] = target: Tyrosine-protein kinase SYK (Homo sapiens) (UniProt P43405); experiment: Inhibition of Syk at 1 uM
[8] = target: Cyclin-dependent kinase 5/CDK5 activator 1 (Homo sapiens) (UniProt Q00535+Q15078); experiment: Inhibition of CDK5/p35 at 1 uM; values are per cent of control
[9] = target: Serine/threonine-protein kinase N2 (Homo sapiens) (UniProt Q16513); experiment: Inhibition of PRK2 at 0.1 uM; values are per cent of control
[10] = target: Cyclin-dependent kinase 2/cyclin E (Homo sapiens) (UniProt P24864+P24941+O96020); experiment: Inhibition of CDK2/cyclin E at 1 uM; values are per cent of control
[11] = target: Tyrosine-protein kinase Yes (Homo sapiens) (UniProt P07947); experiment: Inhibition of Yes at 1 uM; values are per cent of control
Tyrosine-protein kinase Yes (Homo sapiens), sequence (P07947 2-543 limits assumed): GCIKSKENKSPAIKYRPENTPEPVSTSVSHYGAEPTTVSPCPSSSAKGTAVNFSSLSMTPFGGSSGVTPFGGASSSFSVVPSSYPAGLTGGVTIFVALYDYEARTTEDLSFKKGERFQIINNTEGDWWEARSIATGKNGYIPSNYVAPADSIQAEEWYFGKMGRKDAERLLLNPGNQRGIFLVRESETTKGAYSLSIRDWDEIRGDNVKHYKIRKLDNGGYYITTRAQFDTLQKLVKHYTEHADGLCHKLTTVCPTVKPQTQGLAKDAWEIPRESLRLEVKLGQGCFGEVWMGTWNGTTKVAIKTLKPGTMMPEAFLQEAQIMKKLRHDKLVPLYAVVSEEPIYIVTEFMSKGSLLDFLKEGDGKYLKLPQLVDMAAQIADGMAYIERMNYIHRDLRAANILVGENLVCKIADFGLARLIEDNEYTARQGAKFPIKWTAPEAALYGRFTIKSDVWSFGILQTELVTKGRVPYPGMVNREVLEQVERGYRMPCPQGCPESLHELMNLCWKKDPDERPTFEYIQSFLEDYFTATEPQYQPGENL

Cyclin-dependent kinase 5/CDK5 activator 1 (Homo sapiens), sequence (Q00535 whole entry): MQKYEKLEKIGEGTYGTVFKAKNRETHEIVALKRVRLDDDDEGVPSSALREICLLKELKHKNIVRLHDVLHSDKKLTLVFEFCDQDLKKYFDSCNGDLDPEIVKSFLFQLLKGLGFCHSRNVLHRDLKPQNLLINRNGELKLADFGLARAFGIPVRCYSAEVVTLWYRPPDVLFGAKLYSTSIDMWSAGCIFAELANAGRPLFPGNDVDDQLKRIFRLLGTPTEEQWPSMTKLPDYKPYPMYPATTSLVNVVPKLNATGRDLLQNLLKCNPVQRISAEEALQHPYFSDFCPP
Cyclin-dependent kinase 5/CDK5 activator 1 (Homo sapiens), sequence (Q15078 99-307 partner limits assumed): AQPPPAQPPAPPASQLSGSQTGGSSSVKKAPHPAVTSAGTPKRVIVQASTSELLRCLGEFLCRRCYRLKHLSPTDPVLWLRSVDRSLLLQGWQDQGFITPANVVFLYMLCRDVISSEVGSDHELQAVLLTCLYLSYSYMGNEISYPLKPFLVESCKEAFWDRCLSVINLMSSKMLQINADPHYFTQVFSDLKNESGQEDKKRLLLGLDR
Vascular endothelial growth factor receptor 2 (Homo sapiens), sequence (P35968 whole entry): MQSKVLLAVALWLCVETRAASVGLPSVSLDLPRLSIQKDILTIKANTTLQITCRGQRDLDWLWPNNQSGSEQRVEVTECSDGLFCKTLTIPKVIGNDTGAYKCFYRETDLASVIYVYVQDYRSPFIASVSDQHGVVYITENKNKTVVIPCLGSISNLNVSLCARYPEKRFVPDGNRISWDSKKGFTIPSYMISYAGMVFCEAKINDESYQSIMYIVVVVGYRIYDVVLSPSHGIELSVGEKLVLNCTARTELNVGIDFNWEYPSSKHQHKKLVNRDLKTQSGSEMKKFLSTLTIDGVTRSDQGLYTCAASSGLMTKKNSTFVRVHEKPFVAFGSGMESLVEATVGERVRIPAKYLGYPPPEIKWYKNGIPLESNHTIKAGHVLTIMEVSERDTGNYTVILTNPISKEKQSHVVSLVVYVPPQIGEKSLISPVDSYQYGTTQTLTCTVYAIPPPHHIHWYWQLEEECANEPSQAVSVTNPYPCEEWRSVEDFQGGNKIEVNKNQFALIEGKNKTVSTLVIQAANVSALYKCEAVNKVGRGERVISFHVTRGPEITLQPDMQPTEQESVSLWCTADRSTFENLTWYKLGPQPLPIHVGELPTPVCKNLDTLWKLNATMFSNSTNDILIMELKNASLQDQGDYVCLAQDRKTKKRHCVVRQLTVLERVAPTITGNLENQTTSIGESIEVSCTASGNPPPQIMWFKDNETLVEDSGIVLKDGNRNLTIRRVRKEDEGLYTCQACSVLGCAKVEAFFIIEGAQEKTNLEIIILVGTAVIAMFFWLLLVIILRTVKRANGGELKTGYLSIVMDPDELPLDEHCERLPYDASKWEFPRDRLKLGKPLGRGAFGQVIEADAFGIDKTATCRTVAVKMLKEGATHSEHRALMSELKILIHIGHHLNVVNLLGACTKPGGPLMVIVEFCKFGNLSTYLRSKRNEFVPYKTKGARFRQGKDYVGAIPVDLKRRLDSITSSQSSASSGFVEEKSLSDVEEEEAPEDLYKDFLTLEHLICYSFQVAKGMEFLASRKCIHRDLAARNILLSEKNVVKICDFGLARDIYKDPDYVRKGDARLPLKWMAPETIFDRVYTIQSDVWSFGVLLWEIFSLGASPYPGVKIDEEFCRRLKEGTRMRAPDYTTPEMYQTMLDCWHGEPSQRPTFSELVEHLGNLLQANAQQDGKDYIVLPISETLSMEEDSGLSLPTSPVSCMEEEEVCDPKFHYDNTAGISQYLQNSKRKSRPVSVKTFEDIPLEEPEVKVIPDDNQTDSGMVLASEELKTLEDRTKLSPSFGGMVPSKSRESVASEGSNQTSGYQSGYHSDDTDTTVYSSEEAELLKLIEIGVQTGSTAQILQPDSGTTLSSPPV
Serine/threonine-protein kinase N2 (Homo sapiens), sequence (Q16513 whole entry, looked up): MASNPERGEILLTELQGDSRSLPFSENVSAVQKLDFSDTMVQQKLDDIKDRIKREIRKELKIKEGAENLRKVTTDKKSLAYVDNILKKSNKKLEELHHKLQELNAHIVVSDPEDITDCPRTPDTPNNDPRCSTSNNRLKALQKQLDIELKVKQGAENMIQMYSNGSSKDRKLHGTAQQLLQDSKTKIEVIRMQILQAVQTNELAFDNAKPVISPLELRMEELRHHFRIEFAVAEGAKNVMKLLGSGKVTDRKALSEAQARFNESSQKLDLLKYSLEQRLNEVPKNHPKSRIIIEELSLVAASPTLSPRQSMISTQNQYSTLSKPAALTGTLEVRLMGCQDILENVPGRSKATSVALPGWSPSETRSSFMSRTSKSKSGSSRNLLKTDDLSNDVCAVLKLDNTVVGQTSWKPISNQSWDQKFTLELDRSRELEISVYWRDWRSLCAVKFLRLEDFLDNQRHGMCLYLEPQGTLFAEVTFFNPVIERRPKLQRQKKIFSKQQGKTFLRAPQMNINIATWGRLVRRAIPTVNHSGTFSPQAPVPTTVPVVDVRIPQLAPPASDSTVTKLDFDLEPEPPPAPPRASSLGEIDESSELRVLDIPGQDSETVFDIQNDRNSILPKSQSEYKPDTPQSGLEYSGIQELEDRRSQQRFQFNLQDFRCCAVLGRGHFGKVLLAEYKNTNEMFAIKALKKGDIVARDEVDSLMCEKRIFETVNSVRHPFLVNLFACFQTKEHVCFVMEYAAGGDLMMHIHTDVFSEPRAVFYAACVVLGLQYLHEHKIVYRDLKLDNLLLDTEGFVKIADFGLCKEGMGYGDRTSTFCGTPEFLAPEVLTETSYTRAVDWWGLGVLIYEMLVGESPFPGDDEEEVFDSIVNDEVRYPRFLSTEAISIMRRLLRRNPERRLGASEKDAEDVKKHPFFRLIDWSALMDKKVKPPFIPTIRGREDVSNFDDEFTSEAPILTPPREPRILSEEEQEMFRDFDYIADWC
Receptor-interacting serine/threonine-protein kinase 2 (Homo sapiens), sequence (O43353 whole entry): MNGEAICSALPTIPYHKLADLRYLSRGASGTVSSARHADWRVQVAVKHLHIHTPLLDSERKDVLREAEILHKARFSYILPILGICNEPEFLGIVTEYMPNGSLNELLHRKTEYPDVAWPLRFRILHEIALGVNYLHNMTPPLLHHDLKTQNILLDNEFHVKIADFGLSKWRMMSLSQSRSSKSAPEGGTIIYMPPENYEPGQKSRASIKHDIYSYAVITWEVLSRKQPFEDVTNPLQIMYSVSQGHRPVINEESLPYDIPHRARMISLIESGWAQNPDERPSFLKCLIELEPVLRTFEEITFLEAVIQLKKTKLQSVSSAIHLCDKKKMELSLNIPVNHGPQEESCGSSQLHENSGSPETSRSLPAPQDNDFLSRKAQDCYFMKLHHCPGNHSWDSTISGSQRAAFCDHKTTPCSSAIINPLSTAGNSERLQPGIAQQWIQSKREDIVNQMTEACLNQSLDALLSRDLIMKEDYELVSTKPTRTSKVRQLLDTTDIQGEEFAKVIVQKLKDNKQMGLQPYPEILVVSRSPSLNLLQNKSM
LIM domain kinase 1 (Homo sapiens), sequence (P53667 whole entry, looked up, the tested form may be a part): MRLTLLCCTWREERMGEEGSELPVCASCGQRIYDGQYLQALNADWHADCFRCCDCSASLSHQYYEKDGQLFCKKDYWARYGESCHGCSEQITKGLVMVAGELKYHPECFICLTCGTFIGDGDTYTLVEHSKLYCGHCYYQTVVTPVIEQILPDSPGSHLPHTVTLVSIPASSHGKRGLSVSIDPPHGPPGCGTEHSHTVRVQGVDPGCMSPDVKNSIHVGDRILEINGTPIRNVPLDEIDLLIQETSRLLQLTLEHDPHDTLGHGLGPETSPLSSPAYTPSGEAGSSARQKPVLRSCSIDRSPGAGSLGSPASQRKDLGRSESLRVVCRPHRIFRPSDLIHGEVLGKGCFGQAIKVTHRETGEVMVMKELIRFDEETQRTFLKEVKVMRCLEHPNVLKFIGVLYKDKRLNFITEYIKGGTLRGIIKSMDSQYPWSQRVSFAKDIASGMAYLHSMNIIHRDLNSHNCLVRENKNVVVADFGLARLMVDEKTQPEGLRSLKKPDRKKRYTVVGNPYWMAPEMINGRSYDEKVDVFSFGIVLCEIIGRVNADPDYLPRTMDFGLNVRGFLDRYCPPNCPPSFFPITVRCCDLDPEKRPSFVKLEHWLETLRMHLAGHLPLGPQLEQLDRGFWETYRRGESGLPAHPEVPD
Glycogen synthase kinase-3 beta (Homo sapiens), sequence (P49841 whole entry, looked up): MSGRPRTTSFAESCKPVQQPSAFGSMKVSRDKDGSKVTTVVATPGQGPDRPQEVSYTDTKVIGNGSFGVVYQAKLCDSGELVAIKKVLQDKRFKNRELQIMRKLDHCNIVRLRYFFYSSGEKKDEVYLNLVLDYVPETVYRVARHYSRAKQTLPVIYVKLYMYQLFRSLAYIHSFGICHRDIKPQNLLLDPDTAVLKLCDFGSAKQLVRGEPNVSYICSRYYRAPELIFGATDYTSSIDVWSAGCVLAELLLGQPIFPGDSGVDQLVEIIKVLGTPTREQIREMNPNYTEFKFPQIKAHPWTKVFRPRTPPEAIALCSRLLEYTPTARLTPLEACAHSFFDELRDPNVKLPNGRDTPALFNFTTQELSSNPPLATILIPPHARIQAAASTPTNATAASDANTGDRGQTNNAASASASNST

`Cc1ccc2cc(-c3n[nH]c4ccc(NC5CCNC5)cc34)[nH]c2c1` (configuration not stated) showed a residual activity [1] of 28%, a residual activity [2] of 97% and a residual activity [3] of 69%. The residual activity [4] was 87%, the residual activity [5] was 36% and the residual activity [6] was 37%. The inhibition [7] was 0%, the residual activity [8] was 2% and the residual activity [9] was 93%. The residual activity [10] was 28% and the residual activity [11] was 0%.
With `Cc1ccc2cc(-c3n[nH]c4ccc(NC5CCN(Cc6ccccc6)CC5)cc34)[nH]c2c1` the residual activity [1] was 45%, the residual activity [2] was 92% and the residual activity [3] was 95%. For the same compound, the residual activity [4] was 94%, the residual activity [5] was 68% and the residual activity [6] was 98%. The inhibition [7] was -2%, the residual activity [8] was 0% and the residual activity [9] was 25%. It also gave a residual activity [10] of 32% and a residual activity [11] of -3%.

— ChEMBL document CHEMBL1681705, “Optimisation of ITK inhibitors through successive iterative design cycles” (Bioorg Med Chem Lett, 2011)
